Reference: patent publication US20110002855A1 (NEUROGEN CORPORATION, priority 2007, published 2011)
pKi: −log10 of the molar value.

target: T1, chimeric human H3 receptor (Homo sapiens, UniProt Q9Y5N1); assay: Chimeric human H3 receptor GTP binding assay (Example 7); type: biochemical; details: agonist (1 μM histamine)-stimulated GTP-gamma35S binding, P2 membranes of Sf9 cells; Ki from IC50 by Cheng-Prusoff
T1 construct: made in house; host or cells: Sf9 insect cells (baculovirus); P2 membrane preparation
T1 sequence (Q9Y5N1 with tags, fused parts or gaps): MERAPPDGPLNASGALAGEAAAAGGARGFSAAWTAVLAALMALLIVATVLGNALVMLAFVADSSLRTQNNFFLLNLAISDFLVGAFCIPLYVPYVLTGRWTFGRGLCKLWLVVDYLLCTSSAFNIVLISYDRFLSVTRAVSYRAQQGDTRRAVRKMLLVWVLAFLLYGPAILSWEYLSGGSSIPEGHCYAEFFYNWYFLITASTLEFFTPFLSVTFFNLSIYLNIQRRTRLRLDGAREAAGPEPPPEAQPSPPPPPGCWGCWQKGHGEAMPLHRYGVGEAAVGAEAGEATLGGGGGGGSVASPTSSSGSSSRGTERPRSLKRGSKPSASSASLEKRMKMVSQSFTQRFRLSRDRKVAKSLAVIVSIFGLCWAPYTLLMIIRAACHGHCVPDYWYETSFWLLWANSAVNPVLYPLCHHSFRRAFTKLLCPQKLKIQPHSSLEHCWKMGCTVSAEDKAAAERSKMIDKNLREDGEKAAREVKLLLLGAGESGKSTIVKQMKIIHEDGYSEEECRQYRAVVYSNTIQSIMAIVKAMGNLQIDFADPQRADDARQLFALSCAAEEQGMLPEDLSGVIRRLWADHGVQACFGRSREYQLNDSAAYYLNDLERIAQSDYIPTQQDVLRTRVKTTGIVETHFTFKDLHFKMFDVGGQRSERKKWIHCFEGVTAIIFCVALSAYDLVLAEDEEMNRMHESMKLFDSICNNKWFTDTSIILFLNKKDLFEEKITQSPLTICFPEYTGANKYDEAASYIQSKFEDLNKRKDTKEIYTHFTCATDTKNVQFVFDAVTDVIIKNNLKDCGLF
Description: This Example illustrates a representative assay for evaluating agonist-stimulated GTP-gamma^35S binding (“GTP binding”) activity. […] This agonist-stimulated GTP binding activity can also be used to detect partial agonism mediated by antagonist compounds. A compound analyzed in this assay is referred to herein as a “test compound.”
Four independent baculoviral stocks (one directing the expression of the chimeric human H3 receptor and three directing the expression of each of the three subunits of a heterotrimeric G-protein) are used to infect a culture of Sf9 cells as described above. P2 membranes are prepared as described above, and agonist-stimulated GTP binding on the P2 membranes is assessed using histamine (Sigma Chemical Co., St. Louis, Mo.) as agonist in order to ascertain that the receptor/G-protein-alpha-beta-gamma combination(s) yield a functional response as measured by GTP binding. P2 membranes are resuspended by Dounce homogenization (tight pestle) in GTP binding assay buffer (50 mM Tris pH 7.4, 120 mM NaCl, 5 mM MgCl2, 2 mM EGTA, 1 mg/ml BSA, 0.2 mg/ml bacitracin, 0.02 mg/ml aprotinin, 0.01 mg/ml saponin, 10 μM GDP) and added to assay tubes at a concentration of 35 μg protein/reaction tube. After adding increasing doses of histamine at concentrations ranging from 10^−12 M to 10^−5 M, reactions are initiated by the addition of 125 pM GTP-gamma^35S (PERKIN ELMER; Boston, Mass.) with a final assay volume of 0.20 ml. In competition experiments, non-radiolabeled test compounds are added to separate reactions at concentrations ranging from 10^−10 M to 10^−6M along with 1 μM histamine to yield a final volume of 0.20 ml.
Neutral antagonists are antagonists that are substantially free of inherent agonist activity, and include those test compounds that reduce the histamine-stimulated GTP binding activity towards, but not below, baseline levels. In contrast, in the absence of added histamine, inverse agonists reduce the GTP binding activity of the receptor-containing membranes below baseline.
After a 60-min incubation at room temperature, reactions are terminated by vacuum filtration over WHATMAN GF/C filters (pre-soaked in wash buffer, 0.1% BSA) followed by washing with ice-cold wash buffer (50 mM Tris pH 7.4, 120 mM NaCl). The amount of receptor-bound (and thereby membrane-bound) GTE-gamma^35S is determined by measuring the filter-bound radioactivity, preferably by liquid scintillation spectrometry of the washed filters. Non-specific binding is determined in parallel assays including 10 μM unlabeled GTP-gammaS and typically represents less than 5 percent of total binding. Data is expressed as percent above basal (baseline). The results of GTP binding experiments are analyzed using SIGMAPLOT software (SPSS Inc., Chicago, Ill.). IC50 values are calculated by non-linear regression analysis of dose-response curves using Kaleidograph (Synergy Software, Reading, Pa.).
Alternatively the data is analyzed as follows. First, the average bound radioactivity from negative control wells (no agonist) is subtracted from the bound radioactivity detected for each of the other experimental wells. Second, average bound radioactivity is calculated for the positive control wells (agonist wells). Then, percent inhibition for each compound tested is calculated using the equation:
Calculated IC50 values are converted to Ki values by the Cheng-Prusoff correction (Cheng and Prusoff (1973) Biochem. Pharmacol. 22(23):3099-3108). Accordingly, the following equation: Ki=IC50/(1+[L]/EC50) is used, where [L] is the histamine concentration in the GTP binding assay, and EC50 is the concentration of histamine producing a 50% response, as determined by a dose-response analysis using concentrations of histamine ranging from 10^−10 M to 10^−6M. […]

Structure (SMILES)	pKi
COc1ccc2[nH]c3c(c2c1)CCN(CC(=O)N1CCN(C2CCC2)CC1)C3 [Compound 18, 2-[2-(4-Cyclobutylpiperazin-1-yl)-2-oxoethyl]-6-methoxy-2,3,4,9-tetrahydro-1H-beta-carboline]	> 6.00
COc1ccc2c(c1)c1c(n2C)CN(CC(=O)N2CCN(C3CCC3)CC2)CC1 [Compound 19, 2-[2-(4-Cyclobutylpiperazin-1-yl)-2-oxoethyl]-6-methoxy-9-methyl-2,3,4,9-tetrahydro-1H-beta-carboline]	> 6.00
Cc1ccc2[nH]c3c(c2c1)CCN(CC(=O)N1CCN(C2CCC2)CC1)C3 [Compound 20, 2-[2-(4-Cyclobutylpiperazin-1-yl)-2-oxoethyl]-6-methyl-2,3,4,9-tetrahydro-1H-beta-carboline]	> 6.00
O=C(CN1CCc2c([nH]c3ccc(F)cc23)C1)N1CCN(C2CCC2)CC1 [Compound 21, 2-[2-(4-Cyclobutylpiperazin-1-yl)-2-oxoethyl]-6-fluoro-2,3,4,9-tetrahydro-1H-beta-carboline]	> 6.00
O=C(CN1CCc2c([nH]c3ccc(Br)cc23)C1)N1CCN(C2CCC2)CC1 [Compound 22, 6-Bromo-2-[2-(4-cyclobutylpiperazin-1-yl)-2-oxoethyl]-2,3,4,9-tetrahydro-1H-beta-carboline]	> 6.00
Cn1c2c(c3cc(F)ccc31)CCN(CC(=O)N1CCN(C3CCC3)CC1)C2 [Compound 23, 2-[2-(4-Cyclobutylpiperazin-1-yl)-2-oxoethyl]-6-fluoro-9-methyl-2,3,4,9-tetrahydro-1H-beta-carboline]	> 6.00
O=C(CN1CCc2c([nH]c3cc(F)ccc23)C1)N1CCN(C2CCC2)CC1 [Compound 24, 2-[2-(4-Cyclobutylpiperazin-1-yl)-2-oxoethyl]-7-fluoro-2,3,4,9-tetrahydro-1H-beta-carboline]	> 6.00
O=C(CN1CCc2c([nH]c3c(F)cccc23)C1)N1CCN(C2CCC2)CC1 [Compound 25, 2-[2-(4-Cyclobutylpiperazin-1-yl)-2-oxoethyl]-8-fluoro-2,3,4,9-tetrahydro-1H-beta-carboline]	> 6.00
O=C(CN1CCc2c([nH]c3cccc(F)c23)C1)N1CCN(C2CCC2)CC1 [Compound 26, 2-[2-(4-Cyclobutylpiperazin-1-yl)-2-oxoethyl]-5-fluoro-2,3,4,9-tetrahydro-1H-beta-carboline]	> 6.00
O=C(CN1CCc2c([nH]c3cc(-c4cncnc4)ccc23)C1)N1CCN(C2CCC2)CC1 [Compound 27, 2-[2-(4-Cyclobutylpiperazin-1-yl)-2-oxoethyl]-7-pyrimidin-5-yl-2,3,4,9-tetrahydro-1H-beta-carboline]	> 6.00
CCn1c2c(c3ccccc31)CCN(CC(=O)N1CCN(C3CCC3)CC1)C2 [Compound 28, 2-[2-(4-Cyclobutylpiperazin-1-yl)-2-oxoethyl]-9-ethyl-2,3,4,9-tetrahydro-1H-beta-carboline]	> 6.00
CCCn1c2c(c3ccccc31)CCN(CC(=O)N1CCN(C3CCC3)CC1)C2 [Compound 29, 2-[2-(4-Cyclobutylpiperazin-1-yl)-2-oxoethyl]-9-propyl-2,3,4,9-tetrahydro-1H-beta-carboline]	> 6.00
CC(C)n1c2c(c3ccccc31)CCN(CC(=O)N1CCN(C3CCC3)CC1)C2 [Compound 30, 2-[2-(4-Cyclobutylpiperazin-1-yl)-2-oxoethyl]-9-isopropyl-2,3,4,9-tetrahydro-1H-beta-carboline]	> 6.00
O=C(CN1CCc2c(n(CC(F)(F)F)c3ccccc23)C1)N1CCN(C2CCC2)CC1 [Compound 31, 2-[2-(4-Cyclobutylpiperazin-1-yl)-2-oxoethyl]-9-(2,2,2-trifluoroethyl)-2,3,4,9-tetrahydro-1H-beta-carboline]	> 6.00
O=C(CN1CCc2c([nH]c3ccccc23)C1)N1CCN2CCCCC2C1 (stereo not drawn) [Compound 32, 2-[2-(Octahydro-2H-pyrido[1,2-a]pyrazin-2-yl)-2-oxoethyl]-2,3,4,9-tetrahydro-1H-beta-carboline]	> 6.00
CC1CCCC2CN(C(=O)CN3CCc4c([nH]c5ccccc45)C3)CCN12 (stereo not drawn) [Compound 33, 2-[2-(6-Methyloctahydro-2H-pyrido[1,2-a]pyrazin-2-yl)-2-oxoethyl]-2,3,4,9-tetrahydro-1571H-beta-carboline]	> 6.00
